No end group written: not given here.
What was measured:
[1] = system: cerebellar granule neurons; details: during glutamate neurotoxicity; cited from earlier work
[2] = Stability of the peptide in aqueous test formulations: change in impurity content by UPLC after storage; format: physicochemical; details: for Δ Total impurities (difference in % (w/w) of impurities from Day 0 to Day 14) / Δ impurity at retention time 1.293 min (difference in % (w/w) of impurities from Day 0 to Day 14) / Δ impurity at retention time 4.923 min (difference in % (w/w) of impurities from Day 0 to Day 14) / Δ impurity at retention time 5.821 min (difference in % (w/w) of impurities from Day 0 to Day 14) / Δ impurity at retention time 6.267 min (difference in % (w/w) of impurities from Day 0 to Day 14) / Δ impurity at retention time 7.268 min (difference in % (w/w) of impurities from Day 0 to Day 14) / Δ impurity at retention time 10.47 min (difference in % (w/w) of impurities from Day 0 to Day 14): UPLC
Experimental: The effect of methionine on the stability of the peptide in an aqueous composition was evaluated. Test formulations of the peptide (1 mg/ml) in aqueous acetate buffer at pH 5.5 were prepared with or without methionine (1 mg/ml).
The effect of pH on the stability of the peptide in an aqueous composition was evaluated. Test formulations of the peptide in water (1 mg/ml) were prepared at a pH of 4.5, 5.0 or 5.5 using an acetate buffer. […]

BDNF and NGF genes = details: cited from earlier work
[3] = system: nuclear membranes of nerve cells of the basal forebrain, hippocampus and cerebellum; details: cited from earlier work
Bcl-2 = details: cited from earlier work
[4] = system: damaged cells under conditions of oxidative stress; details: oxidative stress caused by short-term incubation with hydrogen peroxide; cited from earlier work
PCNA = details: cited from earlier work
[5] = system: membranes of the basal ganglia and cerebral cortex; details: cited from earlier work
[6] = peptide 1 mg/ml in water, acetate buffer pH 4.5, 14 days at 60° C.
[7] = peptide 1 mg/ml in water, acetate buffer pH 5.0, 14 days at 60° C.
[8] = peptide 1 mg/ml, aqueous acetate buffer pH 5.5, 14 days at 60° C.

stability of the peptide as a function of pH ([2]; pH 4.5, 5.0 or 5.5 acetate buffer, 14 days at 60° C.): most stable at pH 4.5
Δ Total impurities (difference in % (w/w) of impurities from Day 0 to Day 14) [2, 6]: 2.55 % (w/w)
Δ impurity at retention time 1.293 min (difference in % (w/w) of impurities from Day 0 to Day 14) [2, 6]: 0.3 % (w/w)
Δ impurity at retention time 4.923 min (difference in % (w/w) of impurities from Day 0 to Day 14) [2, 6]: 1.43 % (w/w)
Δ impurity at retention time 5.821 min (difference in % (w/w) of impurities from Day 0 to Day 14) [2, 6]: 0.28 % (w/w)
Δ impurity at retention time 6.267 min (difference in % (w/w) of impurities from Day 0 to Day 14) [2, 6]: 0 % (w/w)
Δ impurity at retention time 7.268 min (difference in % (w/w) of impurities from Day 0 to Day 14) [2, 6]: 0.28 % (w/w)
Δ impurity at retention time 10.47 min (difference in % (w/w) of impurities from Day 0 to Day 14) [2, 6]: 0.1 % (w/w)
Δ Total impurities (difference in % (w/w) of impurities from Day 0 to Day 14) [2, 7]: 4.07 % (w/w)
Δ impurity at retention time 1.293 min (difference in % (w/w) of impurities from Day 0 to Day 14) [2, 7]: 0.55 % (w/w)
Δ impurity at retention time 4.923 min (difference in % (w/w) of impurities from Day 0 to Day 14) [2, 7]: 2.58 % (w/w)
Δ impurity at retention time 5.821 min (difference in % (w/w) of impurities from Day 0 to Day 14) [2, 7]: 0.12 % (w/w)
Δ impurity at retention time 6.267 min (difference in % (w/w) of impurities from Day 0 to Day 14) [2, 7]: 0.11 % (w/w)
Δ impurity at retention time 7.268 min (difference in % (w/w) of impurities from Day 0 to Day 14) [2, 7]: 0.28 % (w/w)
Δ impurity at retention time 10.47 min (difference in % (w/w) of impurities from Day 0 to Day 14) [2, 7]: 0.24 % (w/w)
Δ Total impurities (difference in % (w/w) of impurities from Day 0 to Day 14) [2, 8]: 8.49 % (w/w)
Δ impurity at retention time 1.293 min (difference in % (w/w) of impurities from Day 0 to Day 14) [2, 8]: 1.19 % (w/w)
Δ impurity at retention time 4.923 min (difference in % (w/w) of impurities from Day 0 to Day 14) [2, 8]: 5.58 % (w/w)
Δ impurity at retention time 5.821 min (difference in % (w/w) of impurities from Day 0 to Day 14) [2, 8]: 0.1 % (w/w)
Δ impurity at retention time 6.267 min (difference in % (w/w) of impurities from Day 0 to Day 14) [2, 8]: 0.27 % (w/w)
Δ impurity at retention time 7.268 min (difference in % (w/w) of impurities from Day 0 to Day 14) [2, 8]: 0.31 % (w/w)
Δ impurity at retention time 10.47 min (difference in % (w/w) of impurities from Day 0 to Day 14) [2, 8]: 0.84 % (w/w)
Substance: MEHFPGP [Peptide, Met-Glu-His-Phe-Pro-Gly-Pro]
survival of cerebellar granule neurons [1]: significantly increase the survival
transcription of the neurotrophin BDNF and NGF genes (BDNF and NGF genes): rapid induction of the transcription
binding to nuclear membranes of nerve cells [3]: bind to the nuclear membranes of nerve cells of the basal forebrain, hippocampus and cerebellum
levels of Bcl-2 (Bcl-2): increase levels of Bcl-2
number of damaged cells [4]: reduce the number of damaged cells
expression of the nuclear protein PCNA (PCNA): significant increase in the expression
specific binding to membranes [5]: specifically bind to the membranes of the basal ganglia and cerebral cortex
